Results published in patent US10231969B2, “Anti-neoplastic combinations and dosing regimens using CDK4/6 inhibitor compounds to treat RB-positive tumors” (G1 Therapeutics, Inc., priority 2014, dated 2019).
Where two headings read alike, the source gives them in different places. One block for each molecule: values may come before it.

Assays:
[1] = system: HS68 cells (human skin fibroblast cell line (Rb-positive)); experiment: G1 arrest (cellular G1 and S-phase) assay; type: cell-based
Procedure: The fraction of cells in G0-G1 DNA cell cycle versus the fraction in S-phase DNA cell cycle was determined using FlowJo 7.2.2 analysis.
The compounds listed in Table 1 were tested for their ability to arrest HS68 cells at the G1 phase of the cell cycle.

CDK2/CyclinA = target: T1, CDK2/CyclinA (Homo sapiens, UniProt P24941); experiment: CDK2/CycA kinase assay (Nanosyn, Caliper microfluidic); type: biochemical; settings: Table 2; for IC50: ATP 50 μM
T1 construct: Nanosyn (Santa Clara, Calif.) ran the assay as a service
Procedure: (§1) Selected compounds disclosed herein were tested in CDK4/cyclinD1, CDK2/CycA and CDK2/cyclinE kinase assays by Nanosyn (Santa Clara, Calif.) to determine their inhibitory effect on these CDKs. The assays were performed using microfluidic kinase detection technology (Caliper Assay Platform). The compounds were tested in 12-point dose-response format in singlicate at Km for ATP. Phosphoacceptor substrate peptide concentration used was 1 μM for all assays and Staurosporine was used as the reference compound for all assays. Specifics of each assay are as described below:
CDK2/CyclinA: Enzyme concentration: 0.2 nM; ATP concentration: 50 μM; Incubation time: 3 hr.

[2] = system: H69 (human small cell lung cancer—Rb-negative) cells; experiment: Cellular proliferation assay (CellTiter-Glo), H69; type: cell-based; settings: NCI-H69, 96 h, four days
Procedure: (§2) Cellular proliferation assays were further conducted using the following cancer cell lines: MCF7 (breast adenocarcinoma—Rb-positive), ZR-75-1 (breast ductal carcinoma—Rb-positive), H69 (human small cell lung cancer—Rb-negative) cells, or A2058 (human metastatic melanoma cells—Rb-negative). These cells were seeded in Costar (Tewksbury, Mass.) 3093 96 well tissue culture treated white walled/clear bottom plates. Cells were treated with the compounds of Table 1 as nine point dose response dilution series from 10 uM to 1 nM. Cells were exposed to compounds and then cell viability was determined after either four (H69) or six (MCF7, ZR75-1, A2058) days as indicated using the CellTiter-Glo® luminescent cell viability assay (CTG; Promega, Madison, Wis., United States of America) following the manufacturer's recommendations. Plates were read on BioTek (Winooski, Vt.) Syngergy2 multi-mode plate reader. The Relative Light Units (RLU) were plotted as a result of variable molar concentration and data was analyzed using Graphpad (LaJolla, Calif.) Prism 5 statistical software to determine the EC50 for each compound.

[3] = system: A2058 (human metastatic melanoma cells—Rb-negative); experiment: Cellular proliferation assay (CellTiter-Glo), A2058; type: cell-based; settings: A2058, 144 h, six days
Procedure: as §2

CDK4/CyclinD1 = CDK4/CyclinD1 (Homo sapiens, UniProt P11802); experiment: CDK4/cyclinD1 kinase assay (Nanosyn, Caliper microfluidic); type: biochemical; settings: read-out: CDK4/CycD1 IC50
Procedure: as §1
CDK4/CyclinD1: Enzyme concentration: 1 nM; ATP concentration: 200 μM; Incubation time: 10 hr.

CDK2/CyclinE = target: T2, CDK2/CyclinE (Homo sapiens, UniProt P24941); experiment: CDK2/cyclinE kinase assay (Nanosyn, Caliper microfluidic); type: biochemical; settings: Table 2; for IC50: ATP 100 μM, read-out: CDK2/CycE IC50
T2 construct: Nanosyn (Santa Clara, Calif.) ran the assay as a service
Procedure: as §1, with “assays.” for “assays. Specifics of each assay are as described below:”

[4] = system: MCF7 (breast adenocarcinoma—Rb-positive); experiment: Cellular proliferation assay (CellTiter-Glo), MCF7; type: cell-based; settings: Homo sapiens, MCF7, 144 h, six days
Procedure: as §2

[5] = Peripheral blood CBC on day 14 in MCF7 implant model; type: in vivo, Immunodeficient mice; settings: Day 14, 100 mg/kg PO QD
Text: Specific cell counts analyzed were white blood cells (WBC: FIG. 21A), lymphocytes (FIG. 21B), neutrophils (FIG. 21C), monocytes (FIG. 21D), platelets (FIG. 21E), and red blood cells (FIG. 21F).

[6] = system: Rb phosphorylation (Ser780, Ser807/811) in tHS68; experiment: Rb phosphorylation western blot, tHS68; type: cell-based; settings: tHS68, 300 nM, by 16 hours post exposure
Procedure: (§3) The CDK4/6-cyclin D complex is essential for progression from G1 to the S-phase of the DNA cell cycle. This complex phosphorylates the retinoblastoma tumor suppressor protein (Rb). […] Samples were lysed and protein was assayed by western blot analysis. Rb phosphorylation was measured at two sites targeted by the CDK4/6-cyclin D complex, Ser780 and Ser807/811 using species specific antibodies.

[7] = system: tHS68 (CDK4/6-dependent; Rb-positive); experiment: Cell cycle arrest, propidium iodide flow cytometry, tHS68; type: cell-based; settings: tHS68, 24 hours, highest concentration shown (28% at baseline)
Text: To test the ability of CDK4/6 inhibitors to induce a clean G1-arrest in Rb-positive cells, a cell based screening method was used consisting of two CDK4/6-dependent cell lines (tHS68 and WM2664; Rb-positive) and one CDK4/6-independent (A2058; Rb-negative) cell line. […] At the conclusion of the experiment, cells were harvested, fixed, and stained with propidium iodide (a DNA intercalator), which fluoresces strongly red (emission maximum 637 nm) when excited by 488 nm light. Samples were run on Dako Cyan flow cytometer and >10,000 events were collected for each sample. Data were analyzed using FlowJo 2.2 software developed by TreeStar, Inc.

[8] = system: bone marrow proliferating cells; experiment: EdU incorporation in hematopoietic cells after i.p. dose; type: in vivo, C57BL/6 female mice; settings: single i.p. dose 50 mg/kg or 100 mg/kg
Procedure: At the designated time: 30 min, 1 h, 2 h, 4 h, 6 h, 8 h, 12 h, 18 h, 24 h or 48 h, mice received an injection of 5′-ethynyl-2′-deoxyuridine (EdU). Two hours post EdU injection, mice were sacrificed. As illustrated in FIGS. 12-19, cell lines were isolated and incorporation of EdU was measured. Hematopoietic cell lineages were identified using known cell lineage markers. (See, for example, Challen, et al. “Mouse Hematopoietic Stem Cell Identification and Analysis”, Cytometry A. (2009) 75(1): 14-24).

[9] = system: 456 (395 non-mutant) kinases; experiment: DiscoveRx KINOMEscan profiling; type: binding; settings: 1000 nM
[10] = system: Rb phosphorylation (Ser780, Ser807/811) in WM2664; experiment: Rb phosphorylation western blot, WM2664; type: cell-based; settings: WM2664, 300 nM, by 16 hours post exposure
Procedure: as §3

[11] = system: ZR-75-1 (breast ductal carcinoma—Rb-positive); experiment: Cellular proliferation assay (CellTiter-Glo), ZR-75-1; type: cell-based; settings: Homo sapiens, ZR-75-1, 144 h, six days, read-out: ZR75-1 Cellular EC50
Procedure: as §2

[12] = system: ER+, HER2− locally advanced or metastatic breast cancer; settings: post-menopausal women, at time of final PFS analysis; cited from earlier work

CDK4/CyclinD1, sequence (P11802 whole entry): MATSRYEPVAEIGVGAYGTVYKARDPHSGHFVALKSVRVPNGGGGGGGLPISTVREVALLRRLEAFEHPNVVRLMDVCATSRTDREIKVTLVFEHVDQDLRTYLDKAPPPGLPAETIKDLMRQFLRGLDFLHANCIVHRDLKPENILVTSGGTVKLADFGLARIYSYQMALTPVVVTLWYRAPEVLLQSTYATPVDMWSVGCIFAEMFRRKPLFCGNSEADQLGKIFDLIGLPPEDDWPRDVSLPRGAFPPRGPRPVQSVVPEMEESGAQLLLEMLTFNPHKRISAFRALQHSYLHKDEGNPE
CDK4/CyclinD1, sequence (P24385 whole entry partner): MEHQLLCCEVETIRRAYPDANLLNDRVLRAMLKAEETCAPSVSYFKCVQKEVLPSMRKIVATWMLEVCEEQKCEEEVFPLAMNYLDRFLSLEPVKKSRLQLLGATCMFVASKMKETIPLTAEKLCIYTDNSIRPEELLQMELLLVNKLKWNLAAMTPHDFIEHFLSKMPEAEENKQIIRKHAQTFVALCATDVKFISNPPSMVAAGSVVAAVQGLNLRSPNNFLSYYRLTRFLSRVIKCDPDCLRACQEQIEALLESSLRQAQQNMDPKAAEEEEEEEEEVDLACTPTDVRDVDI

IC50 (CDK2/CyclinA): 85 nM
Fold Selectivity (CDK2/CycA/CDK4) (CDK2/CyclinA; ratio of IC50s): 31
EC50 [2]: > 3000 nM
EC50 [3]: > 3000 nM
IC50 (CDK4/CyclinD1; Table 2, ATP at Km (200 μM)): 2.8 nM
IC50 (CDK2/CyclinE): 0.187 µM
Fold Selectivity (CDK2/CycE/CDK4) (CDK2/CyclinE; ratio of IC50s): 68
EC50 [4]: 123 nM
SMILES: CN1CCN(C(=O)c2ccc(Cc3ncc4cc5n(c4n3)C3(CCCC3)CNC5=O)nc2)CC1 [BBB]
EC50 [1]: 230 nM

SMILES: CC(C)N1CCN(c2ccc(Nc3ncc4cc5n(c4n3)C3(CCCCC3)CNC5=O)nc2)CC1 [Compound GG]
lymphocyte count [5]: reduced cell counts
neutrophil count [5]: reduced cell counts
platelet count [5]: reduced cell counts
red blood cell count [5]: reduced cell counts
white blood cell count [5]: reduced cell counts
IC50 (CDK4/CyclinD1; Table 3): 1.06 nM
IC50 (CDK4/CyclinD1): 1 nM

SMILES: CN1CCN(c2ccc(Nc3ncc4cc5n(c4n3)C3(CCCCC3)CNC5=O)nc2)CC1 [Compound T]
Rb phosphorylation [6]: blocks Rb phosphorylation
cells in S-phase [7]: 6%
EdU incorporation, bone marrow [8]: dose and time dependent reduction and recovery of proliferating cells
number of 395 non-mutant kinases inhibited ([9]; inhibitory threshold of 65%): 92
share of 395 non-mutant kinases inhibited ([9]; inhibitory threshold of 65%): 23.3%
number of 395 non-mutant kinases inhibited ([9]; inhibitory threshold of 90%): 31
share of 395 non-mutant kinases inhibited ([9]; inhibitory threshold of 90%): 7.8%
number of 395 non-mutant kinases inhibited ([9]; inhibitory threshold of 99%): 6
share of 395 non-mutant kinases inhibited ([9]; inhibitory threshold of 99%): 1.5%
Rb phosphorylation [10]: blocks Rb phosphorylation

IC50 (CDK4/CyclinD1; Table 2, ATP at Km (200 μM)): 1.2 nM
SMILES: CCN1[C@H](C)CN(c2ccc(Nc3ncc4cc5n(c4n3)C3(CCCCC3)CNC5=O)nc2)C[C@@H]1C [FF]

IC50 (CDK4/CyclinD1; Table 2, ATP at Km (200 μM)): 0.7 nM
SMILES: C[C@@H]1CN(c2ccc(Nc3ncc4cc5n(c4n3)C3(CCCCC3)CNC5=O)nc2)CCN1C[C@@H](C)O [J]

IC50 (CDK4/CyclinD1; Table 2, ATP at Km (200 μM)): 5.7 nM
SMILES: CC(C)N1CCN(c2ccc(Nc3ncc4cc5n(c4n3)C3(CCCCC3)CNC5=O)nc2)C[C@H]1C [L]

IC50 (CDK4/CyclinD1; Table 2, ATP at Km (200 μM)): 3.2 nM
SMILES: CCOCCN1CCN(c2ccc(Nc3ncc4cc5n(c4n3)C3(CCCC3)CNC5=O)nc2)CC1 [MMM]

IC50 (CDK4/CyclinD1; Table 2, ATP at Km (200 μM)): 2.3 nM
SMILES: C[C@H]1CN(c2ccc(Nc3ncc4cc5n(c4n3)C3(CCCCC3)CNC5=O)nc2)CCN1CCC(C)(C)C [M]

IC50 (CDK2/CyclinA): 570 nM
EC50 [2]: > 3000 nM
EC50 [3]: > 3000 nM
EC50 [11]: 229 nM
IC50 (CDK4/CyclinD1; Table 2, ATP at Km (200 μM)): 9 nM
IC50 (CDK2/CyclinE): 3.98 µM
EC50 [4]: 120 nM
SMILES: CC1CN(c2ccc(Nc3ncc4cc5n(c4n3)C3(CCCCC3)CNC5=O)nc2)C[C@@H](C)N1CC1CC1 (stereo partly drawn) [OO]
EC50 [1]: 95 nM

IC50 (CDK2/CyclinA): 2640 nM
IC50 (CDK4/CyclinD1; Table 2, ATP at Km (200 μM)): 0.8 nM
IC50 (CDK2/CyclinE): 16.5 µM
SMILES: CC1CN(c2ccc(Nc3ncc4cc5n(c4n3)C3(CCCC3)CNC5=O)nc2)CCN1CCC(C)(C)C (stereo not drawn) [PPP]

SMILES: CCN(CC)C1CCN(c2ccc(Nc3ncc4cc5n(c4n3)C3(CCCCC3)CNC5=O)nc2)C1 (stereo not drawn) [QQ]
EC50 [1]: 120 nM

IC50 (CDK4/CyclinD1; Table 2, ATP at Km (200 μM)): 1.7 nM
SMILES: C[C@@H](O)CN1CCN(c2ccc(Nc3ncc4cc5n(c4n3)C3(CCCCC3)CNC5=O)nc2)CC1 [S]

IC50 (CDK4/CyclinD1; Table 2, ATP at Km (200 μM)): 18 nM
SMILES: CC(C)[C@H]1CNC(=O)c2cc3cnc(Nc4ccc(N5CCNCC5)cn4)nc3n21 [UUU]

SMILES: CCN(CC)C1CCN(c2ccc(Nc3ncc4cc5n(c4n3)C3(CCCC3)CNC5=O)nc2)C1 (stereo not drawn) [UU]
EC50 [1]: 300 nM

SMILES: O=C1NCC2(CCCC2)n2c1cc1cnc(Nc3ccc(N4CCC(N5CCOCC5)CC4)cn3)nc12 [WW]
EC50 [1]: 400 nM

SMILES: N#Cc1ccc(C(c2ccc(C#N)cc2)n2cncn2)cc1 [letrozole]
median OS [12]: 33.3 months
